How the values were obtained:
[1] = biological target: BRD4(1) (amino acids 44-168) (Homo sapiens (Human), UniProt O60885); experiment: BRD4 binding strength, TR-FRET (HTRF) assay of BRD4(1) / acetylated histone H4 peptide interaction; conditions: inhibition of BRD4(1)/Ac-H4 peptide interaction
From the text: To assess the BRD4 binding strength of the compounds according to the invention, the ability thereof to inhibit the interaction between BRD4 and acetylated histone H4 in a dose-dependent manner was quantified. For this purpose, a time-resolved fluorescence resonance energy transfer (TR-FRET) assay was used, which measures the binding between N-terminally His6-tagged BRD4(1) (amino acids 44-168) and a synthetic acetylated histone H4 (Ac-H4) peptide with sequence […]-biotin. The recombinant BRD4 protein produced in-house according to Filippakopoulos et al., Cell, 2012, 149:214-231 was expressed in E. coli and purified by means of (Ni-NTA) affinity and (Sephadex G-75) size exclusion chromatography. The Ac-H4 peptide can be purchased, for example, from Biosyntan (Berlin, Germany). […] For this purpose, 100-fold concentrated solutions in DMSO were prepared by serial dilutions (1:3.4) of a 2 mM stock solution into a clear, 384-well microtitre plate (Greiner Bio-One, Frickenhausen, Germany). From this, 50 nl were transferred into a black test plate (Greiner Bio-One, Frickenhausen, Germany). […] This was followed by a 10-minute incubation step at 22° C. for the pre-equilibration of putative complexes between BRD4 and the substances. Subsequently, 3 μl of a solution of 1.67 times the concentration (in assay buffer) consisting of Ac-H4 peptide (83.5 nM) and TR-FRET detection reagents [16.7 nM anti-6His-XL665 and 3.34 nM streptavidin cryptate (both from Cisbio Bioassays, Codolet, France), and 668 mM potassium fluoride (KF)] were added. The mixture was then incubated in the dark at 22° C. for one hour and then at 4° C. overnight. The formation of BRD4/Ac-H4 complexes was determined by the measurement of the resonance energy transfer from the streptavidin-Eu cryptate to the anti-6His-XL665 antibody present in the reaction. […] The ratio of the emissions at 665 nm and at 622 nm was taken as an indicator of the amount of BRD4/Ac-H4 complexes formed.

[2] = test system: MOLM-13 cells; experiment: Cell proliferation (alamarBlue), MOLM-13; assay type: cell-based; conditions: Homo sapiens, acute myeloid leukaemia cell line, 96 hours incubation
Experimental: (§1) The ability of the compounds according to the invention to inhibit the proliferation of various cell lines was determined.
(§2) Cell viability was determined by means of the alamarBlue® reagent (Invitrogen). The cells were sown at different densities (MOLM-13, LAPC-4, MOLP-8 and MDA-MB-231: 4000 cells/well; B16F10: 400 cells/well) in 100 μl of growth medium on 96-well microtitre plates. After overnight incubation at 37° C., the fluorescence values (CI values) were determined. The plates were then treated with various substance dilutions and incubated at 37° C. for 96 hours (MOLM-13, MDA-MB-231 and B16F10 cells), 120 hours (MOLP-8 cells) or 168 hours (LAPC-4 cells). Subsequently, the fluorescence values were determined (CO values). For the data analysis, the CI values were subtracted from the CO values and the results were compared between cells which had been treated with various dilutions of the substance or only with buffer solution.
(§3) The compounds according to the invention were tested in the cell lines in Table 2, which represent the indications specified by way of example:
(§4) The indications corresponding to the different cell lines can be found in Table 2.

[3] = test system: LAPC-4 cells; experiment: Cell proliferation (alamarBlue), LAPC-4; assay type: cell-based; conditions: Homo sapiens, LAPC4; prostate carcinoma (androgen receptor-positive) cell line, 168 hours incubation
Experimental: as §1
as §2, with “values).” for “values). For the data analysis, the CI values were subtracted from the CO values and the results were compared between cells which had been treated with various dilutions of the substance or only with buffer solution.”
as §3, §4

[4] = test system: B16F10 cells; experiment: Cell proliferation (alamarBlue), B16F10; assay type: cell-based; conditions: Mus musculus, B16-F10; melanoma cell line, 96 hours incubation
Experimental: as §1, §2, §3, §4

[5] = test system: MDA-MB-231 cells; experiment: Cell proliferation (alamarBlue), MDA-MB-231; assay type: cell-based; conditions: Homo sapiens, mammary carcinoma cell line, 96 hours incubation
Experimental: as §1, §2, §3, §4

[6] = test system: MOLP-8 cells; experiment: Cell proliferation (alamarBlue), MOLP-8; assay type: cell-based; conditions: Homo sapiens, multiple myeloma cell line, 120 hours incubation
Experimental: as §1
as §2, with “values).” for “values). For the data analysis, the CI values were subtracted from the CO values and the results were compared between cells which had been treated with various dilutions of the substance or only with buffer solution.”
as §3, §4

IC50 [1]	IC50 [2]	IC50 [4]	IC50 [5]	SMILES	IC50 [3]	IC50 [6]
90 nM	400 nM	240 nM	410 nM	Cc1nnc2n1-c1ccccc1C(c1ccc(Cl)cc1)=CC2Cc1nc(C(C)C)no1 (stereo in doubt) [Example 36, (−)-(4R)-6-(4-chlorophenyl)-1-methyl-4-{[3-(propan-2-yl)-1,2,4-oxadiazol-5-yl]methyl}-4H-[1,2,4]triazolo[4,3-a][1]benzazepine]	160 nM	
110 nM	250 nM	340 nM	710 nM	Cc1nnc2n1-c1ccccc1C(c1ccc(Cl)cc1)=C[C@H]2CC(=O)N1CCC(=O)C1 [Example 27, (−)-1-{[(4R)-6-(4-chlorophenyl)-1-methyl-4H-[1,2,4]triazolo[4,3-a][1]benzazepin-4-yl]acetyl}pyrrolidin-3-one]	180 nM	
	330 nM	360 nM	800 nM	Cc1nnc2n1-c1ccccc1C(c1ccc(Cl)cc1)=CC2CC(=O)N1CC2(CCS2(=O)=O)C1 (centres unmarked) [Example 18, 2-[6-(4-chlorophenyl)-1-methyl-4H-[1,2,4]triazolo[4,3-a][1]benzazepin-4-yl]-1-(1,1-dioxido-1-thia-6-azaspiro[3.3]hept-6-yl)ethanone]		
130 nM	270 nM	230 nM	480 nM	CCNC(=O)CC1C=C(c2ccc(Cl)cc2)c2ccccc2-n2c(C)nnc21 (centres unmarked) [Example 12, 2-[6-(4-chlorophenyl)-1-methyl-4H-[1,2,4]triazolo[4,3-a][1]benzazepin-4-yl]-N-ethylacetamide]	80 nM	
80 nM	170 nM	190 nM	480 nM	Cc1nnc2n1-c1ccccc1C(c1ccc(Cl)cc1)=CC2CC(=O)Nc1ccc2c(c1)CC(=O)N2 (stereo in doubt) [Example 21, (−)-2-[(4R)-6-(4-chlorophenyl)-1-methyl-4H-[1,2,4]triazolo[4,3-a][1]benzazepin-4-yl]-N-(2-oxo-2,3-dihydro-1H-indol-5-yl)acetamide]	80 nM	
90 nM	340 nM	280 nM	570 nM	Cc1nnc2n1-c1ccccc1C(c1ccc(Cl)cc1)=CC2CC(=O)N1CC(F)C1 (stereo in doubt) [Example 17, (−)-2-[(4R)-6-(4-chlorophenyl)-1-methyl-4H-[1,2,4]triazolo[4,3-a][1]benzazepin-4-yl]-1-(3-fluoroazetidin-1-yl)ethanone]	140 nM	
130 nM	300 nM	500 nM		Cc1nnc(CC2C=C(c3ccc(Cl)cc3)c3cc(OC(F)(F)F)ccc3-n3c(C)nnc32)o1 (centres unmarked) [Example 54, 6-(4-chlorophenyl)-1-methyl-4-[(5-methyl-1,3,4-oxadiazol-2-yl)methyl]-8-(trifluoromethoxy)-4H-[1,2,4]triazolo[4,3-a][1]benzazepine]		360 nM
180 nM	150 nM	220 nM		Cc1nnc2n1-c1ccc(OC(F)(F)F)cc1C(c1ccc(Cl)cc1)=C[C@H]2CC(=O)N1CCN2C(=O)CCC2C1 (stereo partly drawn) [Example 56, 2-{[(4R)-6-(4-chlorophenyl)-1-methyl-8-(trifluoromethoxy)-4H-[1,2,4]triazolo[4,3-a][1]benzazepin-4-yl]acetyl}hexahydropyrrolo[1,2-a]pyrazin-6(2H)-one]		120 nM
790 nM	880 nM	1170 nM		Cc1nnc2n1-c1ccc(OC(F)(F)F)cc1C(c1ccc(Cl)cc1)=CC2CC(=O)OC(C)(C)C (stereo in doubt) [Example 50, tert-butyl (−)-[(4R)-6-(4-chlorophenyl)-1-methyl-8-(trifluoromethoxy)-4H-[1,2,4]triazolo[4,3-a][1]benzazepin-4-yl]acetate]		1050 nM
220 nM	530 nM	460 nM	1040 nM	Cc1nnc2n1-c1ccccc1C(c1ccc(Cl)cc1)=CC2CC(=O)N1CC(F)C1 (centres unmarked) [Example 16, 2-[6-(4-chlorophenyl)-1-methyl-4H-[1,2,4]triazolo[4,3-a][1]benzazepin-4-yl]-1-(3-fluoroazetidin-1-yl)ethanone]	260 nM	
190 nM	310 nM	420 nM		CCNC(=O)C[C@@H]1C=C(c2ccc(Cl)cc2)c2cc(OC(F)(F)F)ccc2-n2c(C)nnc21 [Example 52, 2-[(4R)-6-(4-chlorophenyl)-1-methyl-8-(trifluoromethoxy)-4H-[1,2,4]triazolo[4,3-a][1]benzazepin-4-yl]-N-ethylacetamide]		260 nM
80 nM	150 nM	220 nM		Cc1nnc2n1-c1ccc(OC(F)(F)F)cc1C(c1ccc(Cl)cc1)=C[C@H]2CC(=O)NCCN1CCOCC1 [Example 53, 2-[(4R)-6-(4-chlorophenyl)-1-methyl-8-(trifluoromethoxy)-4H-[1,2,4]triazolo[4,3-a][1]benzazepin-4-yl]-N-[2-(morpholin-4-yl)ethyl]acetamide]		110 nM
90 nM	180 nM	270 nM		Cc1nnc(C[C@@H]2C=C(c3ccc(Cl)cc3)c3cc(OC(F)(F)F)ccc3-n3c(C)nnc32)o1 [Example 55, (4R)-6-(4-chlorophenyl)-1-methyl-4-[(5-methyl-1,3,4-oxadiazol-2-yl)methyl]-8-(trifluoromethoxy)-4H-[1,2,4]triazolo[4,3-a][1]benzazepine]		170 nM
50 nM	170 nM	140 nM		Cc1nnc(CC2C=C(c3ccc(Cl)cc3)c3ccccc3-n3c(C)nnc32)s1 (stereo in doubt) [Example 42, (+)-(4R)-6-(4-chlorophenyl)-1-methyl-4-[(5-methyl-1,3,4-thiadiazol-2-yl)methyl]-4H-[1,2,4]triazolo[4,3-a][1]benzazepine]		110 nM
	3910 nM	1000 nM		Cc1nnc2n1-c1ccccc1C(c1ccc(Cl)cc1)=CC2CC(=O)OC(C)(C)C (centres unmarked) [Example 8, tert-butyl [6-(4-chlorophenyl)-1-methyl-4H-[1,2,4]triazolo[4,3-a][1]benzazepin-4-yl]acetate]	820 nM	4800 nM
730 nM	2630 nM	3030 nM		Cc1nnc2n1-c1ccccc1C(c1cccc(Cl)c1)=CC2CC(=O)N1CC2(COC2)C1 (centres unmarked) [Example 10, 2-[6-(3-chlorophenyl)-1-methyl-4H-[1,2,4]triazolo[4,3-a][1]benzazepin-4-yl]-1-(2-oxa-6-azaspiro[3.3]hept-6-yl)ethanone]	1610 nM	1290 nM
270 nM	410 nM	570 nM		Cc1nnc2n1-c1ccccc1C(c1ccc(Cl)cc1)=C[C@H]2Cc1nnc(COCc2ccccc2)o1 [Example 57, (4R)-4-({5-[(benzyloxy)methyl]-1,3,4-oxadiazol-2-yl}methyl)-6-(4-chlorophenyl)-1-methyl-4H-[1,2,4]triazolo[4,3-a][1]benzazepine]		420 nM
